# In patent US20130158080A1, “METHODS FOR TREATING HYPERTENSION IN BLACK PATIENTS” (Takeda Pharmaceuticals U.S.A., Inc., priority 2011, published 2013):
# System: subjects with moderate to severe hypertension
# Assay: Same study: safety and tolerability (adverse events, laboratory tests, discontinuations)
# Design: species or system human
# Details: in vivo
# Description: Randomization was stratified by subject's race: Black and non-Black. Before initiation of treatment, all subjects participated in a 2-week, single-blind, placebo Run-in Period (Days −14 to −1). […] Subjects taking previous antihypertensive agents were required to participate in a 3 week Washout Period (Days −21 to −1).
# Safety variables included adverse events, vital signs (including orthostatic vital signs), 12-lead electrocardiogram (ECG) findings, and clinical laboratory test results.
# Treatment-emergent adverse events (TEAEs) were tabulated, and vital signs and 12-lead ECG findings were summarized with descriptive statistics. All safety data were presented in the listings.
substance,measurement,value
azilsartan medoxomil potassium plus chlorthalidone [TAK-491CLD],"Mean increases in serum creatinine, blood urea nitrogen, and serum uric acid",more common
